As a reminder, the EC50 is the midpoint of the concentration-response curve.

These results are taken from US8258305B2, “Dopamine transporter inhibitors for use in treatment of movement disorders and other CNS indications” (Prexa Pharmaceuticals, Inc., priority 2005, dated 2012).

The subject of data set [1] is Sprague-Dawley rats. The data set is described as follows: 7-day multidose oral dosing toxicology study. Particulars: 7 days; for observed symptoms: Sprague-Dawley rats (n = 6; 3M/3F), oral. The protocol: The oral doses tested are 50 mg/kg/day, 100 mg/kg/day, 200 mg/kg/day, and 400 mg/kg/day.
Data set [2] deals with NET (Rattus norvegicus, UniProt Q63380). The data set is described as follows: Functional uptake profile, rat NET. It is filed as cell-based.
Data set [3] concerns rat (immobility in forced swim test). Kind of data set: Forced swim test (behavioral despair assay). It is filed as in vivo. The text has this: The objective of this study was to assess the antidepressant effects of test compounds in the behaviral despair assay in rats using a modification of a method described by Porsolt R. D. et al. in Behavioral despair in rats: a new model sensitive to antidepressant treatment, Eur. J. Pharmacol., 47: 379-391, 1978; Porsolt et al., Nature 266: 730-732, 1977; and Porsolt et al., in Psychopharmacology, Olivier, Mos, and Slangen (eds) Birkhauser Verlag, Basel, pp. 137-159, 1991. Briefly, when mice (or rats) are forced to swim in a cylinder from which no escape is possible, they readily adopt a characteristic immobile posture and make no further attempts to escape except for small movements needed to keep floating. The immobility is considered by some to reflect a “depressive mood” (Porsolt et al., Nature 266: 730-732, 1977) in which animals cease to struggle to escape the aversive situation. The immobility induced by the procedure is influenced by a wide variety of antidepressants (Porsolt et al., in Psychopharmacology, Olivier, Mos, and Slangen (eds). Birkhauser. Verlag, Basel, pp. 137-159, 1991) and has a good predictive validity in that it detects antidepressants with different mechanisms of action (TCAs, SSRIs, MAOIs, and other atypical ones). The test is sensitive to muscle-relaxant (benzodiazepines) and sedative (neuroleptics) effects, leading to enhanced immobility (Porsolt et al., supra).
In a typical experiment, animals are placed singly into a cylinder (e.g. 46×30 cm) containing fresh water at about 20° C. for 6 minutes. The activity (or immobility) of the animal is measured by an observer minute by minute. In more detail, the animals were preconditioned in a pretest session, where the rats were individually forced to swim inside a vertical plexiglass cylinder containing water maintained at 19-20° C. After 15 minutes in the water, they were allowed to dry for 15 minutes in a heated enclosure. Twenty four hours later, the compounds were administered either intraperitoneally or orally to the animals. One hour after administration of the test compound, animals were put back into the cylinder containing water. The total duration of immobility was measured during the last 4 minutes of a 6 minute test.
The results are expressed as the percentage of variation of the total duration of immobility calculated from the mean value of the vehicle-treated group (% variation=[(immobility duration of vehicle−immobility duration of test compound)/(immobility duration of vehicle)]×100%). Only compounds which exibit a statistically significant variation (e.g. >30%) are considered effective in this in vivo model.
Sibutramine (2.0 and 2.5 mg/kg), Bupropion (7.5 and 10 mg/kg), and Imipramine (30 mg/kg) were similarly administered as controls. […] Asterisks indicate highly statistical significant results.
A fourth DAT inhibitor, CNS-28,002 was administered p.o. as a racemic mixture of diastereomers at either 35 or 75 mg/kg. Sibutramine (5.0 and 3.75 mg/kg), Bupropion (30 and 40 mg/kg), and Imipramine (100 mg/kg) were similarly administered as controls.
Sibutramine (5.0 and 3.75 mg/kg), Bupropion (30 and 40 mg/kg), and Imipramine (100 mg/kg) were similarly administered as controls.

The test system of data set [4] is rat. Kind of data set: Acute single-dose toxicology (maximum tolerated dose). It is filed as in vivo. Particulars: for observed toxicological effects: rat (n = 5), i.v., observed for 72 hours. The protocol:
An in vivo evaluation was carried out to determine the maximum tolerated dose of numerous test compounds in rat. The compounds were administered i.v., and the animals were then observed for 72 hours.
Briefly, experimental rats, in groups of 5 animals, were administered with various doses of respective DAT inhibitors (e.g. 30, 90, 120, and 200 mg/kg), and the observed toxicological effects were recorded.

Data set [5] has as its target T1, NET (Homo sapiens, UniProt P23975).
T1 construct: expressed in transfected cells; host or cells: MDCK
Kind of data set: Functional norephinephrine uptake inhibition, MDCK cell line. It is filed as cell-based. As to the method: (§1) Functional activity of the compounds was determined in vitro in cellular assays using recombinant human cell lines.

For data set [6], the target named is T2, 5-HT (serotonine uptake) (Homo sapiens, UniProt P31645).
T2 construct: expressed in transfected cells; host or cells: HEK-293
It is filed as cell-based. Particulars: functional uptake. As to the method:
as §1

Data set [7] concerns the target T3, DAT (Homo sapiens, UniProt Q01959).
T3 construct: expressed in transfected cells
The class given is cell-based. Particulars: functional uptake. As to the method:
as §1

[8] abbreviates: i.p., e.g. 7.5 and 15 mg/kg, racemic mixtures of diastereomers, FIG. 2.
The mark [9] stands for this setting: single dose 200 mg/kg, 200 mg/kg.
The mark [10] stands for this setting: p.o., 35 or 75 mg/kg, FIG. 3 and FIG. 4.

“Also recorded” adds a separate entry of the source.

Chain of NET (Rattus norvegicus, UniProt Q63380) (Q63380 1-617): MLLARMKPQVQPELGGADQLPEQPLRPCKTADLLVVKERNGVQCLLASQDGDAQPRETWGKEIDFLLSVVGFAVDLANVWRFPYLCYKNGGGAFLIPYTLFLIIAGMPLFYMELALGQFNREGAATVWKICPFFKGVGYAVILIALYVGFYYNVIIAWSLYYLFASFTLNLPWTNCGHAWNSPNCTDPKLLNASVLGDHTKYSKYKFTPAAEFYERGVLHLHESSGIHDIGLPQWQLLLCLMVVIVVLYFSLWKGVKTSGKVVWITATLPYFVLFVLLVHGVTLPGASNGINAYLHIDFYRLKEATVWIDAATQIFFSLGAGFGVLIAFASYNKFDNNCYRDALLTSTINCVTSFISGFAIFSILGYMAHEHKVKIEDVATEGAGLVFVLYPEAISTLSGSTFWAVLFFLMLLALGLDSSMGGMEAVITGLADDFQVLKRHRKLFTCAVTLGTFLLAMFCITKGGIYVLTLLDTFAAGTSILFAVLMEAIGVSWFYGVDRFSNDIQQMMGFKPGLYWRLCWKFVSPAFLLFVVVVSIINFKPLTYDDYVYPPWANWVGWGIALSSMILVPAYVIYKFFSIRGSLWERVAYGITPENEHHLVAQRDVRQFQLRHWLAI
T1 sequence (P23975 whole entry): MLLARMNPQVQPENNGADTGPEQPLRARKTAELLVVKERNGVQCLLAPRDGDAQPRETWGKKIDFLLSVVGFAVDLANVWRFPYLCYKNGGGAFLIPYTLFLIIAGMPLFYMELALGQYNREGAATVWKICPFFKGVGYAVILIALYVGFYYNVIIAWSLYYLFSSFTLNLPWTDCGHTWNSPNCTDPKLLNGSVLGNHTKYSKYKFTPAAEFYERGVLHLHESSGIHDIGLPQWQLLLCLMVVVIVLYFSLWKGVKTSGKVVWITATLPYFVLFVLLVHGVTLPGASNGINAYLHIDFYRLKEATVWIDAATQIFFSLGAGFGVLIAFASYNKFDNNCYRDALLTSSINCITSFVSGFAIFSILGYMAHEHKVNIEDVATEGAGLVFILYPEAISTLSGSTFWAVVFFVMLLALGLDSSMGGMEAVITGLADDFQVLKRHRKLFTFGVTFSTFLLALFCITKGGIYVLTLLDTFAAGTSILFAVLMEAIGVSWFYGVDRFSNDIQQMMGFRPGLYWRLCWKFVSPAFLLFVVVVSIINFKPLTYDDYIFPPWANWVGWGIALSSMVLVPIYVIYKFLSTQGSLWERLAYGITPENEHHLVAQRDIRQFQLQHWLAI
T2 sequence (P31645 whole entry): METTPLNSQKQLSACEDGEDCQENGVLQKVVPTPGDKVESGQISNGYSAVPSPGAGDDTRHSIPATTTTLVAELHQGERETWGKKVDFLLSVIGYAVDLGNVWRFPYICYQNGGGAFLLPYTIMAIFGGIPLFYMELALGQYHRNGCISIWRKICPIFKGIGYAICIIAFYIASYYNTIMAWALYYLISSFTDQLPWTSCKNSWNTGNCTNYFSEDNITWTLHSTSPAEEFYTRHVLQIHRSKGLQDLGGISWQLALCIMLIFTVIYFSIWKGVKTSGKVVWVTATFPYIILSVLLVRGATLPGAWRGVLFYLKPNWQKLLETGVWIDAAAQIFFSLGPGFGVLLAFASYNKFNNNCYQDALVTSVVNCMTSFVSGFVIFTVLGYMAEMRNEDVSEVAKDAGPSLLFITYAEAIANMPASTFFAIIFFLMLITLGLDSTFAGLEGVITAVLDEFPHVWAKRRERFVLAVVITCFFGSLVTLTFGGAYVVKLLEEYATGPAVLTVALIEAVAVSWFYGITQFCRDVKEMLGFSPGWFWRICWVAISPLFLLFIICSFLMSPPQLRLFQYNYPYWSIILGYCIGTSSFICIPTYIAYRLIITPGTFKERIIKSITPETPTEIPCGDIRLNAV
T3 sequence (Q01959 whole entry): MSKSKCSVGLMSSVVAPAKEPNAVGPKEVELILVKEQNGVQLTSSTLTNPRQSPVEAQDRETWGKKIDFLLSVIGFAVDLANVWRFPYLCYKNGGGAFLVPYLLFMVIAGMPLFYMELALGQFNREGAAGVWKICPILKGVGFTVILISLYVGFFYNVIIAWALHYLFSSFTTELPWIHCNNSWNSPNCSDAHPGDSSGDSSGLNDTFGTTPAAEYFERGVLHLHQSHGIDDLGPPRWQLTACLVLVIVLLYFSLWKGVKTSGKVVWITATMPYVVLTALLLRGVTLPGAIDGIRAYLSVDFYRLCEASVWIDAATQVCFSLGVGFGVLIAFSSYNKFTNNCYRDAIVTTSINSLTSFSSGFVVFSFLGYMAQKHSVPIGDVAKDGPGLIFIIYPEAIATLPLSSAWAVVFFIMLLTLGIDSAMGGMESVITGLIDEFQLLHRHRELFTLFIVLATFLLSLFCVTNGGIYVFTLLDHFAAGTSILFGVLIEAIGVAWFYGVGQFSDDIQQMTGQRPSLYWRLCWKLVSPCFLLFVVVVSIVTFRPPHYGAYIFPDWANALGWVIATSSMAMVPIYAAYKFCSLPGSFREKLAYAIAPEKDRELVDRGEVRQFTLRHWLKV

Regarding `CC(C)CC(N(C)C)C1(c2ccc(Cl)cc2)CCC1` (centres unmarked) [Sibutramine], the observed symptoms result was “decreased grip strength, depression” in data set [1] (100 mg/kg/day) and “convulsions; also recorded: Convulsions;” in data set [1] (400 mg/kg/day). Moreover, the “deaths (number of animals)” value in data set [1] (n = 6, oral, 200 mg/kg/day) is 2 deaths. Further, the “self mutilation (number of animals)” value in data set [1] (n = 6, oral, 200 mg/kg/day) turned out to be 6 self mutilation.
For the compound `CC1CCC(COc2ccc(C(F)(F)F)cc2)CN1CC1(c2ccc(Cl)cc2)CCC1` (centres unmarked) [CNS-28,100], it took 300 nM to reach a half-maximal effect in data set [2] (EC50). The “in vivo efficacy in forced swim test compared with commercial drugs” value in data set [3] (setting [8]) is “performed equally well, if not better, than the commercial drugs Sibutramine, Bupropion, and Imipramine”.
Take `CC1CCC(COc2ccc(C(F)(F)F)cc2)CN1CC(O)C1(c2ccc(Cl)cc2)CCC1` (centres unmarked) [CNS-28,200]: the “in vivo efficacy in forced swim test compared with commercial drugs” value in data set [3] (setting [8]) is “performed equally well, if not better, than the commercial drugs Sibutramine, Bupropion, and Imipramine”. Moreover, the observed toxicological effects result was “decreased grip strength and limb tone and convulsions” in data set [4] (single dose 120 mg/kg, 120 mg/kg); “Convulsions” in data set [4] (setting [9]). Besides, the “toxic dose relative to the effective dose shown in FIG. 2” value in data set [4] (rat, dose with convulsions vs forced swim test effective dose) is given as “about 10 times”.
Take `CN[C@H](CC(C)C)C1(c2ccc(Cl)cc2)CCC1` [R-DMS]: the figures for the EC50 in data set [5], in data set [6] and in data set [7] were 300 nM, 1500 nM and 30 nM, respectively.
For `CC(C)C[C@@H](N)C1(c2ccc(Cl)cc2)CCC1` [R-DDMS], the EC50 was found to be 200 nM in data set [5], 1500 nM in data set [6] and 100 nM in data set [7].
For the compound `CC1CCN(CC2(c3ccc(Cl)cc3)CCC2)CC1COc1ccc(C(F)(F)F)cc1` (centres unmarked) [CNS-27,100], the EC50 in data set [2] came to 1000 nM. Also, the “in vivo efficacy in forced swim test compared with commercial drugs” value in data set [3] (setting [8]) was “performed equally well, if not better, than the commercial drugs Sibutramine, Bupropion, and Imipramine”; in data set [3] (setting [10]), “performed equally well, if not better, than the commercial drugs Sibutramine, Bupropion, and Imipramine”. Moreover, the observed toxicological effects result in data set [4] (setting [9]) is “decreased grip strength, and slight depression”. The “doses tolerated well with no significant observed symptoms” value in data set [4] (rat, single dose) is reported as “below 120 mg/kg”.
Turning to `CC1C(COc2ccc(C(F)(F)F)cc2)CCCN1CC(O)C1(c2ccc(Cl)cc2)CCC1` (centres unmarked) [CNS-28,002], the “in vivo efficacy in forced swim test compared with commercial drugs” value in data set [3] (setting [10]) was “performed equally well, if not better, than the commercial drugs Sibutramine, Bupropion, and Imipramine”. Moreover, the observed toxicological effects result in data set [4] (setting [9]) is “no observed symptoms”.
